“And” between values parts separate entries of the source, which are not always exact repeats. Equal entries are not always repeated. Where two headings read alike, the source gives them in different places.
Columns and labels:
[1] = system: CB1R; set-up: method as in PMID 8070571, PMID 27240274, PMID 24175572; settings: cited from earlier work
[2] = system: CB1R; settings: cited from earlier work
[3] = system: CB2R; settings: cited from earlier work
[4] = target: T1, hCB1R (Homo sapiens, UniProt P21554); test: HTRF cAMP assay, antagonist mode (forskolin with CP55,940); settings: for Emax: read-out: Variation of Emax
Target sequence in this assay (P21554 whole entry): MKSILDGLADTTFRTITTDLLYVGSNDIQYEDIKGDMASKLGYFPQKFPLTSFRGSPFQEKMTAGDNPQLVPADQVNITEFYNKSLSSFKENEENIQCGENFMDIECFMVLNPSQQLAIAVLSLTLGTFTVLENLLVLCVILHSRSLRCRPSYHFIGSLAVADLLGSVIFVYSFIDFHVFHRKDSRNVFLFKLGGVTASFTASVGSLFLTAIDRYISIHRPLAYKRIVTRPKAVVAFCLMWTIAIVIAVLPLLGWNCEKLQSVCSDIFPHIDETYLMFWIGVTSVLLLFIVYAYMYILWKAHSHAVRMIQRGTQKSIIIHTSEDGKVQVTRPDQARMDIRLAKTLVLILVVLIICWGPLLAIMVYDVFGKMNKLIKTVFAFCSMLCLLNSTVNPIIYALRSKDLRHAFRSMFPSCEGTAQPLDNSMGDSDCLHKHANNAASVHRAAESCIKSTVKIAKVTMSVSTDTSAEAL
Method: The homogeneous time-resolved fluorescence (HTRF) cAMP assay was conducted following the manufacturer’s protocol for the cAMP-Gs Dynamic kit. […] After 15 min, reactions were stopped by the 1× cAMP-d2 conjugate in lysis buffer (5 μL/well), followed by 1× anti-cAMP cryptate conjugate in lysis buffer (5 μL/well). Following a 1 h incubation at room temperature, the plates were read in a Revvity Envision reader for time-resolved fluorescence resonance energy transfer detection at 620 and 665 nm. The HTRF ratio versus compound concentrations was plotted using Prism 8.1 (GraphPad). HTRF ratio = (signal 665 nm/signal 620 nm) × 10^4.

[5] = target: T1, hCB1R; test: HTRF cAMP assay, agonist / inverse agonist mode; format: cell-based; set-up: expressed in transfected cells; host or cells: CHO; settings: for Functional activity at CB1R (in words): CB1R cAMP HTRF assay
Target sequence in this assay (P21554 whole entry): as above

[6] = target: T2, human CB2R (Homo sapiens, UniProt P34972); test: [3H]CP55,940 displacement assay on CHO membranes, CB2R; format: binding; settings: for Ki: [3H]CP55,940 displacement; for hCB2R % displacement at 10 µM: [3H]CP55,940 displacement at 10 µM compound, ± SEM
T2 construct: host or cells: CHO-K1 (CHOK1hCB2_bgal)

[7] = target: T1, hCB1R; test: [3H]CP55,940 displacement assay on CHO membranes, CB1R; format: binding; set-up: host or cells: CHO-K1 (CHOK1hCB1_bgal); settings: for Ki: [3H]CP55,940 displacement
Target sequence in this assay (P21554 whole entry): as above

[8] = target: T1, hCB1R; test: biochemical
Target sequence in this assay (P21554 91-472): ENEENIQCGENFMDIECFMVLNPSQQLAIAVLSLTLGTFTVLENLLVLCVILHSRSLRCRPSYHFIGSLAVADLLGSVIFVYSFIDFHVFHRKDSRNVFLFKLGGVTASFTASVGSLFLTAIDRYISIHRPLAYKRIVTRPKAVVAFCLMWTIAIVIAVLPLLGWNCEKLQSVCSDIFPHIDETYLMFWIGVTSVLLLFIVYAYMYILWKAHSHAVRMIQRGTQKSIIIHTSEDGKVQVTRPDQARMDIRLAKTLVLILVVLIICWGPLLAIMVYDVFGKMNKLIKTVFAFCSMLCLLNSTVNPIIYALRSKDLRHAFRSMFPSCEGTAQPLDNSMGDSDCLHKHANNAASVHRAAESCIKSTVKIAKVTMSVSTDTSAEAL

[9] = target: hCB1R; settings: cited from earlier work
[10] = Photophysical characterization in PBS; format: physicochemical; settings: PBS pH 7.4
[11] = system: CB1R; test: Literature affinity of drug-like ligands, CB1R (Figure 2); format: binding; settings: from literature Ki values
[12] = hCB2R Ki, CHO membranes stably expressing human CB2R, means of three experiments
[13] = hCB1R Ki, CHO membranes stably expressing human CB1R, means of three experiments
[14] = CHO membranes stably expressing human CB2R, means of three experiments, read-out: hCB2R Ki

T2 sequence (P34972 whole entry): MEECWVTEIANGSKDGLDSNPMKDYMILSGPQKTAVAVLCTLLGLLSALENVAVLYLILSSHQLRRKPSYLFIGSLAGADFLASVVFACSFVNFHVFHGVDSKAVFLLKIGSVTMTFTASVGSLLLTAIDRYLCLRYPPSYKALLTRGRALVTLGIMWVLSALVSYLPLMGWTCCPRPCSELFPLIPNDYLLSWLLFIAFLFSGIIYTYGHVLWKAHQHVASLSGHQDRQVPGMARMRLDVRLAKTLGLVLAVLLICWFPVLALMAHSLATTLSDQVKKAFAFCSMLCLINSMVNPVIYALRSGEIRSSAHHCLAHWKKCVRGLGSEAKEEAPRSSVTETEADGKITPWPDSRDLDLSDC

Cc1c(C(=O)NC2CCCCC2)cc(-c2cc(C(F)(F)F)ccc2C(F)(F)F)n1CC1CCCO1 (stereo not drawn) [Compound 5]
Functional profile at CB1R (in words) [1]: inverse agonist | IC50 [2]: 8 nM | IC50 [3]: > 80 nM

COCCOc1ncc(C(=O)NC[C@](C)(O)C2CC2)nc1-c1ccc(Cl)cc1 [Compound 9]
Functional profile at CB1R (in words) [1]: inverse agonist | Ki [2]: 47.5 nM | Ki [3]: > 475 nM

O=C(NN1CCCCC1)c1nn(-c2ccc(Cl)cc2Cl)c2c1CCCc1cc(Cl)ccc1-2 [Compound 7, NESS-0327]
Functional profile at CB1R (in words) [1]: neutral antagonist | Ki [2]: 4.2 nM | Ki [3]: 55.7 nM

Cc1c(C(=O)NN2CCOCC2)nn(-c2ccc(Cl)cc2Cl)c1-c1ccc(I)cc1 [AM281, reference compound]
Variation of Emax ([4]; antagonist mode, normalized to reference antagonist AM281): -100% | Antagonist activity (cAMP assay) pEC50 or pIC50 ± SEM ([4]; antagonist mode, n.a. is no activity): 7.0 ± 0.04

CCOC(=O)C(CC)(CC)NC(=O)c1cnc(OCC2CC2)c(-c2ccc(F)cc2)c1 [Compound 17, Ethyl 2-(6-(Cyclopropylmethoxy)-5-(4-fluorophenyl)nicotinamido)-2-ethylbutanoate]
IC50 [4]: 3980 nM | Emax [4]: -116% | Emax [5]: -48% | IC50 [5]: 43.6 nM | Functional activity at CB1R (in words) [5]: inverse agonists | Ki [6, 12]: 6 nM | Ki ([6]; hCB2R pKi ± SEM, CHO membranes): 6.46 nM | Ki [7, 13]: 308 nM

CCCCCCC(C)(C)c1cc(O)c2c(c1)OC(C)(C)[C@@H]1CC=C(CO)C[C@@H]21 [HU210]
Kd [8]: 3.04 nM | koff [8]: 0.00183 s⁻¹ | kon [8]: 623000 M⁻¹ s⁻¹ | Ki ([8]; Ki): 2.08 nM and 1.26 nM | Ki ([8]; pKi): 2.04 nM | residence time ([8]; read-out: RT (residence time)): 9.1 min

CCC(CC)(NC(=O)c1nn(-c2ccc(Cl)cc2Cl)c(-c2ccc(Cl)cc2)c1C)C(=O)NCCOCCOCCNC(=O)OC(C)(C)C [Compound 23b, tert-Butyl (1-(5-(4-Chlorophenyl)-1-(2,4-dichlorophenyl)-4-methyl-1H-pyrazol-3-yl)-3,3-diethyl-1,4-dioxo-8,11-dioxa-2,5-diazatridecan-13-yl)carbamate]
IC50 [4]: 1580 nM | Emax [4]: -96% | Emax [5]: -44% | IC50 [5]: 64.6 nM | Functional activity at CB1R (in words) [5]: inverse agonist | hCB2R % displacement at 10 µM [6]: 44 ± 5% | Ki [6, 12]: > 10000 nM | Ki [7, 13]: 139 nM

CCCCCCC(C)(C)c1cc(O)c2c(c1)OC(C)(C)c1ccc(CNCCCCCCNC(=O)CCCCCC[N+]3=C(/C=C/C=C/C=C4/N(C)c5ccc(S(=O)(=O)O)cc5C4(C)C)C(C)(C)c4cc(S(=O)(=O)[O-])ccc43)cc1-2 [ABP511]
Ki [9]: 3.5 nM

CCOC(=O)C(CC)(CC)NC(=O)c1nn(-c2ccc(Cl)cc2Cl)c2c1CCCc1cc(Cl)ccc1-2 [Compound 16, Ethyl 2-(8-Chloro-1-(2,4-dichlorophenyl)-1,4,5,6-tetrahydrobenzo[6,7]cyclohepta[1,2-c]pyrazole-3-carboxamido)-2-ethylbutanoate]
Functional activity at CB1R (in words) [5]: no activity | Ki ([6]; hCB2R pKi ± SEM, CHO membranes): 3.98 nM | Ki ([7]; hCB1R pKi ± SEM, CHO membranes): 17.8 nM

CCOC(=O)C(CC)(CC)NC(=O)c1cc(-c2cc(C(F)(F)F)ccc2C(F)(F)F)n(C[C@H]2CCCO2)c1C [Compound 14, Ethyl (R)-2-(5-(2,5-Bis(trifluoromethyl)phenyl)-2-methyl-1-((tetrahydrofuran-2-yl)methyl)-1H-pyrrole-3-carboxamido)-2-ethylbutanoate]
IC50 [4]: 10 nM | Emax [4]: -107% | Emax [5]: -46% | IC50 [5]: 1.48 nM | Functional activity at CB1R (in words) [5]: inverse agonists | Ki [6, 14]: 306 nM | Ki ([7]; hCB1R pKi ± SEM, CHO membranes): 11 nM | Ki(CB2R)/Ki(CB1R) selectivity ([7]; radioligand binding Ki ratio): 28 fold

CCOC(=O)C(CC)(CC)NC(=O)c1cnc(OCCOC)c(-c2ccc(Cl)cc2)n1 [Compound 18, Ethyl 2-(6-(4-Chlorophenyl)-5-(2-methoxyethoxy)pyrazine-2-carboxamido)-2-ethylbutanoate]
Emax [5]: -41% | IC50 [5]: 191 nM | Functional activity at CB1R (in words) [5]: inverse agonists | Ki ([6]; hCB2R pKi ± SEM, CHO membranes): 11.2 nM | Ki [7, 13]: 817 nM

CCC(CC)(NC(=O)c1nn(-c2ccc(Cl)cc2Cl)c(-c2ccc(Cl)cc2)c1C)C(=O)NCCOCCOCCNc1ccc([N+](=O)[O-])c2nonc12 [Compound 30, 5-(4-Chlorophenyl)-1-(2,4-dichlorophenyl)-4-methyl-N-(3-((2-(2-(2-((7-nitrobenzo[c][1,2,5]oxadiazol-4-yl)amino)ethoxy)ethoxy)ethyl)carbamoyl)pentan-3-yl)-1H-pyrazole-3-carboxamide]
Abs (absorbance maximum) [10]: 475 nm | Em (emission maximum) [10]: 570 nm | QY (quantum yield) [10]: 0.80% | Emax [5]: -41% | IC50 [5]: 60.3 nM | Functional activity at CB1R (in words) [5]: Inverse agonist | hCB2R % displacement at 10 µM [6]: 49 ± 3% | Ki [6, 12]: > 10000 nM | Ki [7, 13]: 428 nM | Ki(CB2R)/Ki(CB1R) ([7]; radioligand binding Ki ratio): > 23

CC(C)[C@H](NC(=O)c1nn(Cc2cccc(F)c2)c2ccccc12)C(N)=O [Compound 10, AB-FUBINACA 3-F benzyl]
Functional profile at CB1R (in words) [1]: agonist | Ki [2]: 12.6 nM | Ki(CB2R)/Ki(CB1R) selectivity [11]: 4 fold | Ki [3]: 52.5 nM

CCC(CC)(NC(=O)c1cc(-c2cc(C(F)(F)F)ccc2C(F)(F)F)n(C[C@H]2CCCO2)c1C)C(=O)NCCOCCOCCNc1ccc([N+](=O)[O-])c2nonc12 [Compound 28, (R)-5-(2,5-Bis(trifluoromethyl)phenyl)-2-methyl-N-(3-((2-(2-(2-((7-nitrobenzo[c][1,2,5]oxadiazol-4-yl)amino)ethoxy)ethoxy)ethyl)carbamoyl)pentan-3-yl)-1-((tetrahydrofuran-2-yl)methyl)-1H-pyrrole-3-carboxamide]
IC50 [4]: 398 nM | Emax [4]: -97% | Abs (absorbance maximum) [10]: 475 nm | Em (emission maximum) [10]: 550 nm | QY (quantum yield) [10]: 1.3% | Emax [5]: -62% | IC50 [5]: 16.6 nM | Functional activity at CB1R (in words) [5]: inverse agonists | hCB2R % displacement at 10 µM [6]: 41 ± 2% | Ki [6, 14]: > 10000 nM | Ki [7, 13]: 97 nM | Ki(CB2R)/Ki(CB1R) ([7]; radioligand binding Ki ratio): > 103

O=C(NC1CCCCC1O)c1cnc(OCC2CC2)c(-c2ccc(F)cc2)c1 (stereo not drawn) [Compound 8]
Functional profile at CB1R (in words) [1]: inverse agonist | Ki [2]: 42.8 nM | Ki [3]: > 10000 nM

CCOC(=O)C(CC)(CC)NC(=O)c1nn(-c2ccc(Cl)cc2Cl)c(-c2ccc(Cl)cc2)c1C [Compound 15, Ethyl 2-(5-(4-Chlorophenyl)-1-(2,4-dichlorophenyl)-4-methyl-1H-pyrazole-3-carboxamido)-2-ethylbutanoate]
Emax [5]: -42% | IC50 [5]: 13.2 nM | Functional activity at CB1R (in words) [5]: inverse agonists | Ki [6, 12]: 9 nM | Ki ([6]; hCB2R pKi ± SEM, CHO membranes): 8.51 nM | Ki ([7]; hCB1R pKi ± SEM, CHO membranes): 28.2 nM

CCC(CC)(NC(=O)c1nn(-c2ccc(Cl)cc2Cl)c2c1CCCc1cc(Cl)ccc1-2)C(=O)NCCOCCOCCNc1ccc([N+](=O)[O-])c2nonc12 [Compound 32, 8-Chloro-1-(2,4-dichlorophenyl)-N-(3-((2-(2-(2-((7-nitrobenzo[c][1,2,5]oxadiazol-4-yl)amino)ethoxy)ethoxy)ethyl)carbamoyl)pentan-3-yl)-1,4,5,6-tetrahydrobenzo[6,7]cyclohepta[1,2-c]pyrazole-3-carboxamide]
Abs (absorbance maximum) [10]: 485 nm | Em (emission maximum) [10]: 570 nm | QY (quantum yield) [10]: 1.30% | Ki [6, 12]: 309 nM | hCB1R % displacement at 10 µM ([7]; [3H]CP55,940 displacement at 10 µM compound, ± SEM): 35 ± 6% | Ki [7, 13]: > 10000 nM

CCOC(=O)C(CC)(CC)NC(=O)c1nn(Cc2cccc(F)c2)c2ccccc12 [Compound 19, Ethyl 2-Ethyl-2-(1-(3-fluorobenzyl)-1H-indazole-3-carboxamido)butanoate]
EC50 [5]: 3.24 nM | Emax [5]: 93% | Functional activity at CB1R (in words) [5]: agonist | Ki [6, 12]: 1 nM | Ki ([6]; hCB2R pKi ± SEM, CHO membranes): 0.631 nM | Ki ([7]; hCB1R pKi ± SEM, CHO membranes): 19.1 nM

CCC(CC)(NC(=O)c1cc(-c2cc(C(F)(F)F)ccc2C(F)(F)F)n(C[C@H]2CCCO2)c1C)C(=O)NCCOCCOCCNC(=O)OC(C)(C)C [Compound 22b, tert-Butyl (R)-(1-(5-(2,5-Bis(trifluoromethyl)phenyl)-2-methyl-1-((tetrahydrofuran-2-yl)methyl)-1H-pyrrol-3-yl)-3,3-diethyl-1,4-dioxo-8,11-dioxa-2,5-diazatridecan-13-yl)carbamate]
IC50 [4]: 1000 nM | Emax [4]: -105% | Emax [5]: -69% | Functional activity at CB1R (in words) [5]: inverse agonist | IC50 ([5]; read-out: Functional activity (cAMP assay) IC50): 131 nM | hCB2R % displacement at 10 µM [6]: 22 ± 9% | Ki [6, 14]: > 10000 nM | Ki ([7]; CHO membranes stably expressing human CB1R, means of three experiments, read-out: hCB1R Ki): 811 nM

From article PMC11284800 (Journal of Medicinal Chemistry, 2024)
